Measurements from ChEMBL document CHEMBL1201862, “PubChem BioAssay data set” (2004).
Calls of active or inactive are those of the source.

Experiments:
[1] = NIH-3T3 fibroblast cytotoxicity, dose response, cytotoxicity control, cell-based, fluorescence, Alamar Blue, secondary assay (AID 2327); format: functional;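 also: NIH-3T3 mouse fibroblasts cultured with fluconazole at 8 µg/mL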
[2] = fluconazole-exposed Candida albicans growth modulators – fluorescence, retest, confirmation (AID 2467); format: functional, cell-based
[3] = system: HEK293; assay: EBV LMP1 TES2 canonical NF-kB signalling blockers – cell-based, HEK293, luciferase, cherry-pick, dose response (AID 588343); format: functional; settings: Homo sapiens
[4] = system: Vero; assay: cells; format: functional; settings: Chlorocebus sabaeus
[5] = system: Vero; assay: cells; format: functional, cell-based; settings: Chlorocebus sabaeus
[6] = target: T1, Corticotropin-releasing factor receptor 2/Corticotropin-releasing factor-binding protein (Homo sapiens, UniProt P24387+Q13324); assay: activators of CRF receptor 2 with binding protein – uHTS hits, confirmation (AID 602473); format: functional; settings: read-out: EC50_Mean
T1 sequence (Q13324 whole entry): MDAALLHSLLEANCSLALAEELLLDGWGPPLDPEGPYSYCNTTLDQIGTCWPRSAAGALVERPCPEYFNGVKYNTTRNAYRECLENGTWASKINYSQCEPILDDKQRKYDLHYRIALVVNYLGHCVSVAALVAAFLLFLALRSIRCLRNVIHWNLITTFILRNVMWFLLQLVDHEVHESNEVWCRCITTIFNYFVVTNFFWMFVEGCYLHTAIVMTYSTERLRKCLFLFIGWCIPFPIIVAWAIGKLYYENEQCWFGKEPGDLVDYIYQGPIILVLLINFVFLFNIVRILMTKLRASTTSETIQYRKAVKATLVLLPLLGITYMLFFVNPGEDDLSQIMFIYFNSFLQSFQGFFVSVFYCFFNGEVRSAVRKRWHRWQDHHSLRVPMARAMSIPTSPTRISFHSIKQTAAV
T1 sequence (P24387 whole entry): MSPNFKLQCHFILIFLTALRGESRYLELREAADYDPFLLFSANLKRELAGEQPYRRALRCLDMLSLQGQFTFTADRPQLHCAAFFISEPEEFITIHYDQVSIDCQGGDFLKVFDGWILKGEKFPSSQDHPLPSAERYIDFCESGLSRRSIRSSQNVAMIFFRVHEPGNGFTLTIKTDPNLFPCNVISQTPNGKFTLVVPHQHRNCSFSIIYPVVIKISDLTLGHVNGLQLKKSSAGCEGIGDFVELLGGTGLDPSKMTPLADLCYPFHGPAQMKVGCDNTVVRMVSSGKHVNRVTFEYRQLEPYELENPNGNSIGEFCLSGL

[7] = target: T1, Corticotropin-releasing factor receptor 2/Corticotropin-releasing factor-binding protein; assay: Dose Response confirmation of uHTS hits for small molecule antagonists of the CRF-binding protein and CRF-R2 receptor complex.; format: functional; settings: read-out: IC50_Mean
[8] = blockers of CRF-binding protein–CRF-R2 complex – cell-based, uHTS hits, 384-well, dose response (AID 651639); format: functional, Homo sapiens; settings: read-out: IC50_Mean
[9] = system: H9c2; assay: cells; format: functional, cell-based; settings: Rattus norvegicus, H9c2, Myocardium;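 also: confirmatory concentration-response retest of ultra-high-throughput screening hits for modulation of myocardial damage; cell death induced by hydrogen peroxide oxidative stress; compound pretreatment for 60 min then peroxide exposure for 2 h; potency is for protecting the cells against peroxide damage rather than for killing them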
[10] = target: T2, Protein skinhead-1 (Caenorhabditis elegans, UniProt P34707); format: functional
T2 sequence (P34707 whole entry): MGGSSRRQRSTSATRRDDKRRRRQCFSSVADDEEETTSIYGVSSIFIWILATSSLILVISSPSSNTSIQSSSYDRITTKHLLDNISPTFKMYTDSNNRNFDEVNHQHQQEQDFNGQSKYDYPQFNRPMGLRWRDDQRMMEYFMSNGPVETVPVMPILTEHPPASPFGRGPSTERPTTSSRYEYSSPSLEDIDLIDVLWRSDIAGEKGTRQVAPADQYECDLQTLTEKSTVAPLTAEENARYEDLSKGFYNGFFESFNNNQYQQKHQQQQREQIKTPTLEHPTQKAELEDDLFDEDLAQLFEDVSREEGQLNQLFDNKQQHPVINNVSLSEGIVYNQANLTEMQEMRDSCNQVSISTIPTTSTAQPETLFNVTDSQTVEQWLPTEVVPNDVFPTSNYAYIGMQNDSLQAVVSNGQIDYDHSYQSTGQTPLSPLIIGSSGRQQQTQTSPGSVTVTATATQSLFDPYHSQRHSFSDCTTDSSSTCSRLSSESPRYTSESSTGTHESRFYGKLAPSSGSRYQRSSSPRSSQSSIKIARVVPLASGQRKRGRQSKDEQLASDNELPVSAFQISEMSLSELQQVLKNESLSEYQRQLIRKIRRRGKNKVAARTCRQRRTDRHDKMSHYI

[11] = target: Genome polyprotein (dengue virus type 2, UniProt P29990); assay: flavivirus cap methylation enzyme inhibition – biochemical, confirmation dose response, primary screen (AID 588689); format: functional
Chain of Genome polyprotein (P29990 2492-3391 limits assumed): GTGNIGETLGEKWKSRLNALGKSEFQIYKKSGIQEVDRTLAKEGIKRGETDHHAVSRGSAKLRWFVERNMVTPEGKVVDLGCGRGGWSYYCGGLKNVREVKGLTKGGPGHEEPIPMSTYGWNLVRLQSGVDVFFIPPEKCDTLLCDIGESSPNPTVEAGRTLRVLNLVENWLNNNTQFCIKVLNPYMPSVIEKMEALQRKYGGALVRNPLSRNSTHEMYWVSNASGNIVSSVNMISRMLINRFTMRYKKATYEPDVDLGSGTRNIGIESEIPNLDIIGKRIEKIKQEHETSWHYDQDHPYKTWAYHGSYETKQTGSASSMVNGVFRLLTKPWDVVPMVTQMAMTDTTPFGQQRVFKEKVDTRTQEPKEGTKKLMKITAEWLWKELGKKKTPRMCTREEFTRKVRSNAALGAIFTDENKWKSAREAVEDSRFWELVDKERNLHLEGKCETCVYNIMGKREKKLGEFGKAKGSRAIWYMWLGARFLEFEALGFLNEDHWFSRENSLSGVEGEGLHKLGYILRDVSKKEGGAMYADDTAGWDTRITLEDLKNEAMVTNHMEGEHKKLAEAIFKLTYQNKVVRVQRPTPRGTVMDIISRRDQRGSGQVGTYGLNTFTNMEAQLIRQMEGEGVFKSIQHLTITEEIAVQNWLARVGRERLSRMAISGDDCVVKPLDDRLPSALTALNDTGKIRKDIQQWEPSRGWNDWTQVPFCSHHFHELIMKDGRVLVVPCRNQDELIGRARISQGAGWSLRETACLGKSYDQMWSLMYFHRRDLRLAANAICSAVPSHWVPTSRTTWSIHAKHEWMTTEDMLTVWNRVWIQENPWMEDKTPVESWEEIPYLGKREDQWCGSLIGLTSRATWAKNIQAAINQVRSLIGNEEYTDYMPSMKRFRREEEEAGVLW

[12] = target: T3, High affinity choline transporter 1 (Homo sapiens, UniProt Q9GZV3); assay: human choline transporter blockers, potency – cell-based, 5-point CRC, membrane potential dye, dose response (AID 504840); format: functional
T3 sequence (Q9GZV3 whole entry): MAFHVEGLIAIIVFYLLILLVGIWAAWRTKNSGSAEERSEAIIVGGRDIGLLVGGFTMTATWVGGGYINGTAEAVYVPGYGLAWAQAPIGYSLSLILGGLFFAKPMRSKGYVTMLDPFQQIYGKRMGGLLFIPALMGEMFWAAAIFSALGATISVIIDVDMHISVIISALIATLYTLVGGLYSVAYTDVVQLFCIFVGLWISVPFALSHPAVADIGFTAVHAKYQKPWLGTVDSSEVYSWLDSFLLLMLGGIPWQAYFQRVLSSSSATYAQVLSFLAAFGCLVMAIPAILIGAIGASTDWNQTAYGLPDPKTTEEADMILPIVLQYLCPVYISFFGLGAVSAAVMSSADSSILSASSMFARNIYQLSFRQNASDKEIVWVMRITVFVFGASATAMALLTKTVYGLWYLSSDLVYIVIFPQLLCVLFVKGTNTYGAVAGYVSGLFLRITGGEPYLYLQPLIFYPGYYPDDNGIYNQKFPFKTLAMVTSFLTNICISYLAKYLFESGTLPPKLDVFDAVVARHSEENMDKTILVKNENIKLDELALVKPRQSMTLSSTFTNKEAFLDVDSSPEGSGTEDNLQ

[13] = Trypanosoma cruzi growth suppression in host cells – NIH3T3 host cells, beta-gal luminescence, confirmation (AID 2044); format: functional, cell-based;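 also: intracellular parasites grown in NIH/3T3 mouse fibroblasts as host cells; luminescent beta-galactosidase reporter signal from transgenic T. cruzi replicating inside host cells; inhibitors lower the luminescence signal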
[14] = non-specific 3'UTR reporter inhibition in Clone20-Shn3RL – cell-based, Renilla luciferase, cherry-picked, counter-screen for Shn3 inhibitor project, dose response (AID 624133); format: functional
[15] = reduction of Shn3 3'UTR-driven luciferase in osteoblasts – cell-based, Clone20 osteoblasts, firefly luciferase, cherry-picked, dose response (AID 624132); format: functional;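 also: firefly luciferase luminescence from reporter carrying the Shn3 3'UTR in osteoblasts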
[16] = loss of viability in HepG2 cells – cell-based, CellTiter-Glo, cherry-picked, cytotoxicity control for Shn3 inhibitor project, dose response (AID 624134); format: functional
[17] = NIH3T3 cell viability loss – ATP luminescence, mouse fibroblasts, counter-screen, dose response (AID 2010); format: functional, cell-based;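 also: cells exposed to compound for about 90 hours before reading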

Row | Compound | AC50 [3] | EC50 [6] | IC50 [7] | IC50 [8] | other results
1 | Brc1cccc(CSc2nnc(-c3ccncc3)o2)c1 | 47 µM (active) | – | – | – | EC50 [1]: 41.1 µM (active); EC50 [2]: > 38 µM (not active)
2 | Clc1ccc(-c2cc(C3CCNCC3)[nH]n2)c(Cl)c1 | – | – | – | – | CC50 [4]: > 25 µM (active); IC50 [5]: 24.8 µM (active)
3 | NC(=O)c1ccc(NCc2ccco2)c([N+](=O)[O-])c1 | – | > 53 µM (inactive) | 5.79 µM (active) | 3.57 µM (active) | –
4 | Cc1ccc(-c2csc(Nc3ccc(C(=O)O)cc3)[n+]2Cc2ccccc2)cc1 | – | > 53 µM (inactive) | 13 µM (active) | 16.5 µM (active) | –
5 | O=c1oc2ccc3ccccc3c2cc1-c1nnc(-c2ccccc2)o1 | – | > 53 µM (inactive) | < 0.368 µM (active) | 0.39 µM (active) | IC50 [9]: > 79 µM (inactive); IC50 [10]: > 100 µM (inactive)
6 | CCCN1C(=O)c2ccccc2NC1c1ccc(OC)c(CSc2ccccn2)c1 (stereo not given) | – | > 53 µM (inactive) | 46.2 µM (active) | > 20 µM (inactive) | –
7 | COc1cccc(/C=C2\SC(=S)N(NS(=O)(=O)c3ccccc3)C2=O)c1OC | – | > 53 µM (inactive) | 22.3 µM (active) | – | IC50 [11]: 41.1 µM (active); IC50 [12]: 0.692 µM (active)
8 | CCCc1nc2ccc(Br)cc2c(=O)n1-c1ccc([N+](=O)[O-])c(C(F)(F)F)c1 | 29.2 µM (active) | – | – | – | EC50 [13]: 2 µM (active); AC50 [14]: 11.7 µM (active); AC50 [15]: 15.7 µM (active); AC50 [16]: 7.4 µM (active); EC50 [17]: > 60 µM (not active)
9 | CC1(CCCc2ccc(N(CCCl)CCCl)cc2)NC(=O)NC1=O (stereo not given) | 4.51 µM (active) | – | – | – | –
